Data from patent publication US5560935A, “Physiologically active substances extracted from activated tissues” (Nippon Zoki Pharmaceutical Co., Ltd., priority 1993, dated 1996).

tested on: plasma kallikrein; test: Inhibition of the production of plasma kallikrein (kaolin-activated plasma, synthetic substrate); type: biochemical; details: normal human plasma, kaolin activation, substrate D-Pro-Phe-Arg-p-nitroaniline
Method: The inhibitory action of the physiologically-active substance against the production of plasma kallikrein was measured according to a method described in Kiso to Rinsho, vol. 20, no. 17, pages 399-405 (1986).
Thus, a suspension of kaolin was added to normal human plasma diluted with a physiologically saline solution. A lima bean trypsin inhibitor was added thereto after a certain period to stop the kallikrein procluction reaction. Then the resulting kallikrein was determined by using a synthetic substrate (D-Pro-Phe-Arg-p-nitroaniline). The test substance was placed in the above system whereby the inhibitory action of the test substance against the production of kallikrein was determined.
In Table 1 the potency of the activity is given in terms of the concentration (IC50) at which the production of the plasma kallikrein was inhibited to an extent of 50%: […]

Compound	IC50, concentration at which the production of the plasma kallikrein was inhibited to an extent of 50%
CC(C)Cc1ccc(C(C)C(=O)O)cc1 (stereo not drawn) [Ibuprofen]	700 micrograms/ml
CC(C(=O)O)c1cccc(C(=O)c2ccccc2)c1 (stereo not drawn) [Ketoprofen]	400 micrograms/ml
CC(C)=CCN1CCC2(C)c3cc(O)ccc3CC1C2C (stereo not drawn) [Pentazocine]	1,600 micrograms/ml
